This assay deals with L1210 leukemia ip in BDF1 mice, survival T/C. As to the kind of experiment: NCI In Vivo Anticancer Drug Screen. Data for tumor model L1210 Leukemia (intraperitoneal) in B6D2F1 (BDF1) mice. The conditions noted are these: higher = longer survival. Summed up: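 In this screen, tumor-bearing mice given compound are compared to those given vehicle, and their survival values are reported as a treated-to-control quotient.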

The mark [1] stands for this setting: endpoint: mean survival time, dose: 25.0 mg/kg/injection, schedule: Q04DX003 (ip), vehicle: saline.
Where [2] appears, read: endpoint: mean survival time, dose: 50.0 mg/kg/injection, schedule: Q04DX003 (ip), vehicle: saline.
The mark [3] stands for this setting: endpoint: mean survival time, dose: 100.0 mg/kg/injection, schedule: Q04DX003 (ip), vehicle: saline.
Where [4] appears, read: endpoint: mean survival time, dose: 100.0 mg/kg/injection, schedule: Q01DX009 (ip), vehicle: Klucel (hydroxypropylcellulose) (HPC).
Setting [5] is: endpoint: mean survival time, dose: 200.0 mg/kg/injection, schedule: Q01DX009 (ip), vehicle: Klucel (hydroxypropylcellulose) (HPC).
The mark [6] stands for this setting: endpoint: mean survival time, dose: 400.0 mg/kg/injection, schedule: Q01DX009 (ip), vehicle: Klucel (hydroxypropylcellulose) (HPC).
Where [7] appears, read: endpoint: mean survival time, dose: 100.0 mg/kg/injection, schedule: Q04DX003 (ip), vehicle: saline with Tween-80.
Where [8] appears, read: endpoint: mean survival time, dose: 200.0 mg/kg/injection, schedule: Q04DX003 (ip), vehicle: saline with Tween-80.

Toxic doses and inconclusive results are not listed.

With `C[C@@H](CN1CC(=O)NC(=O)C1)N1CC(=O)NC(=O)C1`, the T/C is 116 % of control under setting [1]; 111 % of control (endpoint: mean survival time, dose: 25.0 mg/kg/injection, schedule: Q04DX003 (ip), vehicle: water); 117 % of control (endpoint: mean survival time, dose: 32.0 mg/kg/injection, schedule: Q04DX003 (oral), vehicle: saline); 116 % of control under setting [2]; 100 % of control (endpoint: mean survival time, dose: 50.0 mg/kg/injection, schedule: Q04DX003 (ip), vehicle: water); 151 % of control (endpoint: mean survival time, dose: 64.0 mg/kg/injection, schedule: Q04DX003 (oral), vehicle: saline). Besides, the T/C is, setting by setting: under setting [3], 115 % of control; (endpoint: mean survival time, dose: 128.0 mg/kg/injection, schedule: Q04DX003 (oral), vehicle: saline) 180 % of control; (endpoint: mean survival time, dose: 256.0 mg/kg/injection, schedule: Q04DX003 (oral), vehicle: saline) 180 % of control; (endpoint: mean survival time, dose: 400.0 mg/kg/injection, schedule: Q04DX003 (ip), vehicle: saline) 150 % of control; (endpoint: mean survival time, dose: 400.0 mg/kg/injection, schedule: Q04DX003 (ip), vehicle: water) 158 % of control; (endpoint: mean survival time, dose: 512.0 mg/kg/injection, schedule: Q04DX003 (oral), vehicle: saline) 155 % of control. For the same molecule, the T/C (endpoint: mean survival time, dose: 800.0 mg/kg/injection, schedule: Q04DX003 (ip), vehicle: saline) is 187 % of control; the T/C (endpoint: median survival time, dose: 8.0 mg/kg/injection, schedule: Q01DX009 (sc), vehicle: saline) is 118 % of control; the T/C (endpoint: median survival time, dose: 8.0 mg/kg/injection, schedule: Q03HX008 (ip), vehicle: saline) was 152 % of control; the T/C (endpoint: median survival time, dose: 8.0 mg/kg/injection, schedule: Q03HX016 (ip), vehicle: saline) was 173 % of control; the T/C (endpoint: median survival time, dose: 8.0 mg/kg/injection, schedule: Q03HX024 (ip), vehicle: saline) was 263 % of control; the T/C (endpoint: median survival time, dose: 16.0 mg/kg/injection, schedule: Q01DX009 (sc), vehicle: saline) is 119 % of control. For the same molecule, the T/C runs as follows: (endpoint: median survival time, dose: 16.0 mg/kg/injection, schedule: Q03HX008 (ip), vehicle: saline) 152 % of control; (endpoint: median survival time, dose: 16.0 mg/kg/injection, schedule: Q03HX016 (ip), vehicle: saline) 186 % of control; (endpoint: median survival time, dose: 16.0 mg/kg/injection, schedule: Q03HX024 (ip), vehicle: saline) 300 % of control; (endpoint: median survival time, dose: 32.0 mg/kg/injection, schedule: Q03HX008 (ip), vehicle: saline) 155 % of control; (endpoint: median survival time, dose: 32.0 mg/kg/injection, schedule: Q03HX016 (ip), vehicle: saline) 193 % of control; (endpoint: median survival time, dose: 32.0 mg/kg/injection, schedule: Q03HX024 (ip), vehicle: saline) 113 % of control. For the same molecule, the T/C runs as follows: (endpoint: median survival time, dose: 64.0 mg/kg/injection, schedule: Q01DX001 (ip), vehicle: saline) 108 % of control; (endpoint: median survival time, dose: 64.0 mg/kg/injection, schedule: Q01DX009 (sc), vehicle: saline) 159 % of control; (endpoint: median survival time, dose: 64.0 mg/kg/injection, schedule: Q03HX008 (ip), vehicle: saline) 158 % of control; (endpoint: median survival time, dose: 64.0 mg/kg/injection, schedule: Q03HX024 (ip), vehicle: saline) 94 % of control; (endpoint: median survival time, dose: 64.0 mg/kg/injection, schedule: Q04DX003 (ip), vehicle: saline) 110 % of control; (endpoint: median survival time, dose: 64.0 mg/kg/injection, schedule: Q04DX003 (sc), vehicle: saline) 106 % of control. The T/C is, setting by setting: (endpoint: median survival time, dose: 64.0 mg/kg/injection, schedule: Q08DX002 (ip), vehicle: saline) 104 % of control; (endpoint: median survival time, dose: 128.0 mg/kg/injection, schedule: Q01DX001 (ip), vehicle: saline) 106 % of control; (endpoint: median survival time, dose: 128.0 mg/kg/injection, schedule: Q03HX008 (ip), vehicle: saline) 152 % of control; (endpoint: median survival time, dose: 128.0 mg/kg/injection, schedule: Q03HX016 (ip), vehicle: saline) 107 % of control; (endpoint: median survival time, dose: 128.0 mg/kg/injection, schedule: Q03HX024 (ip), vehicle: saline) 86 % of control; (endpoint: median survival time, dose: 128.0 mg/kg/injection, schedule: Q04DX003 (ip), vehicle: saline) 118 % of control. The T/C runs as follows: (endpoint: median survival time, dose: 128.0 mg/kg/injection, schedule: Q04DX003 (sc), vehicle: saline) 109 % of control; (endpoint: median survival time, dose: 256.0 mg/kg/injection, schedule: Q01DX001 (ip), vehicle: saline) 109 % of control; (endpoint: median survival time, dose: 256.0 mg/kg/injection, schedule: Q04DX003 (ip), vehicle: saline) 118 % of control; (endpoint: median survival time, dose: 256.0 mg/kg/injection, schedule: Q08DX002 (ip), vehicle: saline) 121 % of control; (endpoint: median survival time, dose: 512.0 mg/kg/injection, schedule: Q01DX001 (ip), vehicle: saline) 111 % of control; (endpoint: median survival time, dose: 512.0 mg/kg/injection, schedule: Q04DX003 (sc), vehicle: saline) 182 % of control. Moreover, the T/C is 186 % of control (endpoint: median survival time, dose: 1024.0 mg/kg/injection, schedule: Q04DX003 (ip), vehicle: saline); 236 % of control (endpoint: median survival time, dose: 1024.0 mg/kg/injection, schedule: Q04DX003 (sc), vehicle: saline); 150 % of control (endpoint: median survival time, dose: 1024.0 mg/kg/injection, schedule: Q08DX002 (ip), vehicle: saline).
With `C[CH2][Sn]([CH2]C)([CH2]C)[O]C(=O)CO`, the T/C was 93 % of control (endpoint: mean survival time, dose: 3.12 mg/kg/injection, schedule: Q04DX002 (ip), vehicle: saline); 117 % of control (endpoint: mean survival time, dose: 6.25 mg/kg/injection, schedule: Q04DX002 (ip), vehicle: saline); 104 % of control (endpoint: mean survival time, dose: 12.5 mg/kg/injection, schedule: Q04DX002 (ip), vehicle: saline).
Turning to `CC(=O)NO`, the T/C is 102 % of control (endpoint: mean survival time, dose: 100.0 mg/kg/injection, schedule: Q04DX002 (ip), vehicle: saline); 112 % of control (endpoint: mean survival time, dose: 200.0 mg/kg/injection, schedule: Q04DX002 (ip), vehicle: saline); 108 % of control (endpoint: mean survival time, dose: 400.0 mg/kg/injection, schedule: Q04DX002 (ip), vehicle: saline).
With `CCCc1nc2ccccc2c(=O)n1/N=C/c1ccc(Cl)cc1`, the T/C runs as follows: under setting [4], 98 % of control; under setting [5], 88 % of control; under setting [6], 93 % of control.
Turning to `C/C(=C\c1cc(-c2ccccc2)cc(=O)o1)c1ccccc1`, the T/C (endpoint: mean survival time, dose: 100.0 mg/kg/injection, schedule: Q01DX009 (ip), vehicle: saline with Tween-80) was 89 % of control; the T/C under setting [7] was 104 % of control; the T/C (endpoint: mean survival time, dose: 200.0 mg/kg/injection, schedule: Q01DX009 (ip), vehicle: saline with Tween-80) was 97 % of control; the T/C under setting [8] is 95 % of control; the T/C (endpoint: mean survival time, dose: 400.0 mg/kg/injection, schedule: Q01DX009 (ip), vehicle: saline with Tween-80) is 89 % of control; the T/C (endpoint: mean survival time, dose: 400.0 mg/kg/injection, schedule: Q04DX003 (ip), vehicle: saline with Tween-80) was 103 % of control.
Regarding `c1cc[c]([Pb]([c]2ccccc2)([c]2ccccc2)[n]2ccnc2)cc1`, the T/C was 106 % of control (endpoint: mean survival time, dose: 5.0 mg/kg/injection, schedule: Q01DX001 (ip), vehicle: other) and 98 % of control (endpoint: mean survival time, dose: 10.0 mg/kg/injection, schedule: Q01DX001 (ip), vehicle: other).
For `COc1ccc(CCC2=NCCN2)cc1OC`, the T/C was 103 % of control under setting [7] and 97 % of control under setting [8].
Take `Sc1c(Cl)c(Cl)c(Cl)c(Cl)c1Cl`: the T/C was 106 % of control (endpoint: mean survival time, dose: 100.0 mg/kg/injection, schedule: Q01DX001 (ip), vehicle: Klucel (hydroxypropylcellulose) (HPC)); 93 % of control under setting [4]; 106 % of control (endpoint: mean survival time, dose: 200.0 mg/kg/injection, schedule: Q01DX001 (ip), vehicle: Klucel (hydroxypropylcellulose) (HPC)); 100 % of control under setting [5]; 104 % of control (endpoint: mean survival time, dose: 400.0 mg/kg/injection, schedule: Q01DX001 (ip), vehicle: Klucel (hydroxypropylcellulose) (HPC)); 93 % of control under setting [6].
Consider `OCCOCCN1CCN(C(c2ccccc2)c2ccc(Cl)cc2)CC1` (stereo not drawn), for which the T/C reads like this: (endpoint: mean survival time, dose: 12.5 mg/kg/injection, schedule: Q01DX009 (ip), vehicle: saline) 103 % of control; (endpoint: mean survival time, dose: 25.0 mg/kg/injection, schedule: Q01DX009 (ip), vehicle: saline) 103 % of control; under setting [1], 109 % of control; (endpoint: mean survival time, dose: 50.0 mg/kg/injection, schedule: Q01DX009 (ip), vehicle: saline) 103 % of control; under setting [2], 96 % of control; (endpoint: mean survival time, dose: 100.0 mg/kg/injection, schedule: Q01DX009 (ip), vehicle: saline) 103 % of control. Moreover, the T/C was 93 % of control under setting [3] and 90 % of control (endpoint: mean survival time, dose: 200.0 mg/kg/injection, schedule: Q04DX003 (ip), vehicle: saline).

These data come from PubChem BioAssay AID248 (DTP/NCI, 2004).
